In ChEMBL document CHEMBL1135453, “Inhibition of feline immunodeficiency virus (FIV) replication by DNA binding polyamides” (2002):

Legend:
Type in all cases: functional
[1] = test system: Feline immunodeficiency virus; experiment: Effect on replication of FIV 34TF10env in chronically infected feline glial cell lines G355-5 at 0.01 nM conc; RT activity per ug/mL of protein concentration
[2] = test system: Feline immunodeficiency virus; experiment: Effect on replication of FIV 34TF10 in chronically infected feline glial cell lines G355-5 at 10 nM conc; RT activity per ug/mL of protein concentration
[3] = test system: Feline immunodeficiency virus; experiment: Effect on replication of FIV 34TF10 in chronically infected feline glial cell lines G355-5 at 1000 nM conc; RT activity per ug/mL of protein concentration
[4] = test system: Feline immunodeficiency virus; experiment: Effect on replication of FIV 34TF10 in chronically infected feline glial cell lines G355-5 at 1 nM conc; RT activity per ug/mL of protein concentration
[5] = test system: Feline immunodeficiency virus; experiment: Effect on replication of FIV 34TF10env in chronically infected feline glial cell lines G355-5 at 1 nM conc; RT activity per ug/mL of protein concentration
[6] = test system: Feline immunodeficiency virus; experiment: Effect on replication of FIV 34TF10env in chronically infected feline glial cell lines G355-5 at 100 nM conc; RT activity per ug/mL of protein concentration
[7] = test system: Feline immunodeficiency virus; experiment: Effect on replication of FIV 34TF10env in chronically infected feline glial cell lines G355-5 at 0.1 nM conc; RT activity per ug/mL of protein concentration
[8] = test system: Feline immunodeficiency virus; experiment: Effect on replication of FIV 34TF10 in chronically infected feline glial cell lines G355-5 at 10000 nM conc; RT activity per ug/mL of protein concentration
[9] = test system: Feline immunodeficiency virus; experiment: Effect on replication of FIV 34TF10env in chronically infected feline glial cell lines G355-5 at 10000 nM conc; RT activity per ug/mL of protein concentration
[10] = test system: Feline immunodeficiency virus; experiment: Effect on replication of FIV 34TF10env in chronically infected feline glial cell lines G355-5 at 1000 nM conc; RT activity per ug/mL of protein concentration
[11] = test system: Feline immunodeficiency virus; experiment: Effect on replication of FIV 34TF10env in chronically infected feline glial cell lines G355-5 at 0 nM conc; RT activity per ug/mL of protein concentration
[12] = test system: Feline immunodeficiency virus; experiment: Tested for the percentage decrease in replication of FIV-34TF10 at a concentration of 0.1 nM
[13] = test system: Feline immunodeficiency virus; experiment: Effect on replication of FIV 34TF10 in chronically infected feline glial cell lines G355-5 at 0.1 nM conc; RT activity per ug/mL of protein concentration
[14] = test system: Feline immunodeficiency virus; experiment: Effect on replication of FIV 34TF10 in chronically infected feline glial cell lines G355-5 at 0.01 nM conc; RT activity per ug/mL of protein concentration
[15] = test system: Feline immunodeficiency virus; experiment: Effect on replication of FIV 34TF10 in chronically infected feline glial cell lines G355-5 at 100 nM conc; RT activity per ug/mL of protein concentration
[16] = test system: Feline immunodeficiency virus; experiment: Effect on replication of FIV 34TF10env in chronically infected feline glial cell lines G355-5 at 10 nM conc; RT activity per ug/mL of protein concentration
[17] = test system: Feline immunodeficiency virus; experiment: Effect on replication of FIV 34TF10 in chronically infected feline glial cell lines G355-5 at 0 nM conc; RT activity per ug/mL of protein concentration

Compound: Cc1nc(N)sc1C(=O)Nc1cn(C)c(C(=O)Nc2cn(C)c(C(=O)NCCCN(C)C)n2)n1
- Reverse transcriptase activity [1]: 2000
- Reverse transcriptase activity [2]: 475
- Reverse transcriptase activity [3]: 500
- Reverse transcriptase activity [4]: 800
- Reverse transcriptase activity [5]: 2000
- Reverse transcriptase activity [6]: 1800
- Reverse transcriptase activity [7]: 1500
- Reverse transcriptase activity [8]: 950
- Reverse transcriptase activity [9]: 2100
- Reverse transcriptase activity [10]: 1700
- Reverse transcriptase activity [11]: 2200
- Decrease [12]: 75%
- Reverse transcriptase activity [13]: 350
- Reverse transcriptase activity [14]: 675
- Reverse transcriptase activity [15]: 550
- Reverse transcriptase activity [16]: 1500
- Reverse transcriptase activity [17]: 1025

Compound: CN(C)CCCNC(=O)c1cc(NC(=O)c2cc(NC(=O)c3cc(NC(=O)c4ccccc4C(=O)O)cn3C)cn2C)cn1C
- Reverse transcriptase activity [1]: 2000
- Reverse transcriptase activity [2]: 475
- Reverse transcriptase activity [3]: 480
- Reverse transcriptase activity [4]: 800
- Reverse transcriptase activity [5]: 1600
- Reverse transcriptase activity [6]: 1900
- Reverse transcriptase activity [7]: 1990
- Reverse transcriptase activity [8]: 950
- Reverse transcriptase activity [9]: 1800
- Reverse transcriptase activity [10]: 2100
- Reverse transcriptase activity [11]: 1590
- Decrease [12]: 75%
- Reverse transcriptase activity [13]: 390
- Reverse transcriptase activity [14]: 665
- Reverse transcriptase activity [15]: 490
- Reverse transcriptase activity [16]: 1700
- Reverse transcriptase activity [17]: 1200
